Measured values from article PMC7558535, “In Vitro Metabolism of DWP16001, a Novel Sodium-Glucose Cotransporter 2 Inhibitor, in Human and Animal Hepatocytes” (Pharmaceutics, 2020).

Columns and labels:
Format in all cases: in vitro ADME
[1] = biological target: T1, UGT2B7 (Homo sapiens, UniProt P16662); assay: UGT screening, cDNA-expressed UGT2B7
T1 construct: purchased Corning Life Sciences
T1 sequence (P16662 24-529): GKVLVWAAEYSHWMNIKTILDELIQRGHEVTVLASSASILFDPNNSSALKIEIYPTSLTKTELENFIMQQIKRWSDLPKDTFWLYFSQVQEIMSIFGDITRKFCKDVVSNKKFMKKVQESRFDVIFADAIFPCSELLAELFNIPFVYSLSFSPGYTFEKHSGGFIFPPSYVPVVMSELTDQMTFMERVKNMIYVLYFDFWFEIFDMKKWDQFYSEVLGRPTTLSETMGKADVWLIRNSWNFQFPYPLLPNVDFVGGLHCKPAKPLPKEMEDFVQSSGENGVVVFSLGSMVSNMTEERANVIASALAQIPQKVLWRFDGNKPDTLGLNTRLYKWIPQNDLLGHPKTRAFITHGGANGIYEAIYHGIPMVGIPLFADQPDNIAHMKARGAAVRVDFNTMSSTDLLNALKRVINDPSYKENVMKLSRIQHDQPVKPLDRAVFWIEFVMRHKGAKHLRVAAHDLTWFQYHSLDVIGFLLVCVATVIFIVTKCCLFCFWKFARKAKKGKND
Description: (§1) To screen for UGT enzymes responsible for glucuronidation of DWP16001, 100 μL of reaction mixtures containing 13 human cDNA-expressed UGT enzymes (1A1, 1A3, 1A4, 1A6, 1A7, 1A8, 1A9, 1A10, 2B4, 2B7, 2B10, 2B15, and 2B17) at 0.1 mg protein/mL, 5 mM UDPGA, 0.025 mg/mL alamethicin, and 25 μM DWP16001 or M1 in 50 mM Tris buffer (pH 7.4) were incubated at 37 °C for 30 min in triplicate. Reactions were stopped by adding 100 μL of ketoconazole (internal standard, 200 ng/mL) in acetonitrile, followed by vortex-mixing and centrifugation (15,000× g, 8 min, 4 °C). The supernatant (75 μL) was diluted with equal volume of 30% acetonitrile and aliquots (5 μL) were injected into an LC-MS/MS system.

[2] = biological target: T2, CYP3A4 (Homo sapiens, UniProt P08684); assay: Enzyme kinetics of metabolite formation in cDNA-expressed CYP3A4 supersomes
T2 construct: purchased Corning Life Sciences
Description: (§2) To calculate the enzyme kinetic parameters for the M1 and M2 formation from DWP16001, DWP16001 (final concentrations, 1–200 μM) was incubated with NADPH-generating system, pooled human liver microsomes (0.25 mg/mL), or human cDNA-expressed CYP3A4 or CYP2C19 supersomes (10 pmol) at 37 °C for 30 min in triplicate. Reactions were stopped by addition of 400 μL of ice-cold ketoconazole (200 ng/mL) in acetonitrile. Following vortex-mixing and centrifugation (15,000× g, 8 min, 4 °C), 75 μL aliquots of the supernatant were diluted with 75 µL of 30% acetonitrile; 5 μL aliquots were injected into an LC−MS/MS system.
(§3) Apparent kinetic parameters (Km, Vmax and n) for the formation of M1, M2, and M3 from DWP16001 by human liver microsomes, CYP3A4, or CYP2C19 were calculated as follows: the unweighted formation rates of M1, M2, and M3 over a range of DWP16001 concentrations were fitted to the Hill equation model [V = Vmax × S^n/(Km^n + S^n)] or the single enzyme model [V = Vmax × S/(Km + S)] using Enzyme Kinetics software (version 1.1 SPSS Inc., Chicago, IL, USA). In the above equations, V means the reaction velocity of the formation of M1, M2, and M3 at given concentration [S] of DWP16001, Vmax means the maximum reaction velocity, n means the Hill constant, and Km means the DWP16001 concentration at which the reaction velocity is 50% of Vmax.

[3] = test system: 13 human UGT enzymes; assay: UGT screening, whole panel; settings: incubation of DWP16001 with 13 human UGT enzymes, UDPGA
Description: as §1

[4] = biological target: T2, CYP3A4; assay: CYP screening, recombinant CYP3A4
Description: DWP16001, M1, or M2 was incubated with 11 human cDNA-expressed CYP enzymes (1A1, 1A2, 2A6, 2B6, 2C8, 2C9, 2C19, 2D6, 2E1, 3A4, and 3A5) to identify the CYP enzymes involved in the metabolism of DWP16001. Reaction mixtures of 95 µL containing DWP16001 (final concentration: 5 µM), M1 or M2 (final concentration: 10 µM), and CYPs (final amount: 10 pmol) were prepared in 0.1 M potassium phosphate buffer (pH 7.4). The reaction was started by adding 5 µL of NADPH-generating system; the mixtures were incubated for 30 min at 37 °C in triplicate. Reactions were stopped by the addition of 400 µL of ice-cold ketoconazole (internal standard, 200 ng/mL) in ice-cold acetonitrile. Samples were centrifuged at 15,000× g for 8 min at 4 °C. Seventy-five microliter aliquots of the supernatants were diluted with 75 µL of deionized water and analyzed using an LC–MS/MS system.

[5] = biological target: T3, UGT1A4 (Homo sapiens, UniProt P22310); assay: UGT screening, cDNA-expressed UGT1A4
T3 construct: purchased Corning Life Sciences
T3 sequence (P22310 29-534): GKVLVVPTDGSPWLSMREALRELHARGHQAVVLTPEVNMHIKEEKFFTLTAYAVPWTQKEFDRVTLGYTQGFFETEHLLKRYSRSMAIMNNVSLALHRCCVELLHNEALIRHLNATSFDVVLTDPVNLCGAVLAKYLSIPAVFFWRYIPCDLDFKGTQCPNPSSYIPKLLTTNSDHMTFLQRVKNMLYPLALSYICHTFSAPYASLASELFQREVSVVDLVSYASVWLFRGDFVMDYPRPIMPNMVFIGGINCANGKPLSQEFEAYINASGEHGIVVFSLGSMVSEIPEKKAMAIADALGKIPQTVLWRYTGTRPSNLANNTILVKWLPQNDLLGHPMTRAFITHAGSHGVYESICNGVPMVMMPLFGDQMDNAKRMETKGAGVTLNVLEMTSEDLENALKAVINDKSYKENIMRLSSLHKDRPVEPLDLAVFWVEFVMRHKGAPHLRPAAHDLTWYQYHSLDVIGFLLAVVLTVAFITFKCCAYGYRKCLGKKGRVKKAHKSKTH
Description: as §1

[6] = biological target: T4, CYP2C19 (Homo sapiens, UniProt P33261); assay: Enzyme kinetics of metabolite formation in cDNA-expressed CYP2C19 supersomes
T4 construct: purchased Corning Life Sciences
Description: as §2, §3

[7] = CYP2C19 supersomes, kinetic model fitted

T2 sequence (P08684 whole entry): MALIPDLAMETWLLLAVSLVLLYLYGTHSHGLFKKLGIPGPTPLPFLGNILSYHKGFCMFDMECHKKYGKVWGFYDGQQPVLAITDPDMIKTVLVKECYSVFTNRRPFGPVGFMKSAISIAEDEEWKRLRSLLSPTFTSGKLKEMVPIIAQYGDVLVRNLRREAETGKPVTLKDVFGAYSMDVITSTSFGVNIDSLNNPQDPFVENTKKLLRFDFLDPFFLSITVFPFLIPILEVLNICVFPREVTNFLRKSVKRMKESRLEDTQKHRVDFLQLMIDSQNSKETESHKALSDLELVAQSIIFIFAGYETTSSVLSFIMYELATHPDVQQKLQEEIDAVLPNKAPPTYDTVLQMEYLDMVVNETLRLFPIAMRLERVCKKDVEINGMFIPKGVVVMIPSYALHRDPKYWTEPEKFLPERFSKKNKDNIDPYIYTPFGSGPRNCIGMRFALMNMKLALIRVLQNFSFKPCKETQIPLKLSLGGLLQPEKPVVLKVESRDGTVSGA
T4 sequence (P33261 whole entry): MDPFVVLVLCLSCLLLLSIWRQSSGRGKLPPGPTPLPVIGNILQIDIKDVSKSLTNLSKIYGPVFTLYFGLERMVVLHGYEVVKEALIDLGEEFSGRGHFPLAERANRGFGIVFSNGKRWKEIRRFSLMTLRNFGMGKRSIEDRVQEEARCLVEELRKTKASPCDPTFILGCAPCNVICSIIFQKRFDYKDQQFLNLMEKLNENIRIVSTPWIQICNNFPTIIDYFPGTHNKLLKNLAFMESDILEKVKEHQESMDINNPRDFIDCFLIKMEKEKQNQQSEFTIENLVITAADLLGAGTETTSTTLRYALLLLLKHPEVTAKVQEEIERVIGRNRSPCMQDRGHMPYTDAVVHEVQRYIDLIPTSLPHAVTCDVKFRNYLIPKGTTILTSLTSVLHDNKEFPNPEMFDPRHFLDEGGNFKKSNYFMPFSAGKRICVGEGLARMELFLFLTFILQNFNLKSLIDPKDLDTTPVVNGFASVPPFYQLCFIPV

In the case of OC[C@H]1O[C@@H](c2cc(Cc3ccc(C4CC4)cc3)c(Cl)c3c2CCO3)[C@H](O)[C@@H](O)[C@@H]1O [DWP16001, (2S,3R,4R,5S,6R)-2-(7-chloro-6-(4-cyclopropylbenzyl)-2,3-dihydrobenzofuran-4-yl)-6-(hydroxymethyl)tetrahydro-2H-pyran-3,4,5-triol], the “Substrate of UGT2B7” value [1] is reported as “substrate”, the “M3 formation kinetic model” value [2] is reported as “single enzyme kinetics” and the “M1 Formation Mode” value ([2]; kinetic model fitted) is reported as “Hill”. For the same compound, the “M2 Formation Mode” value ([2]; kinetic model fitted) was “Hill”, the “Formation of U3 from DWP16001” value [3] was “not formed” and the “Substrate of CYP3A4” value [4] was “substrate”. The “Substrate of UGT1A4” value [5] was “substrate”, the “M3 formation from DWP16001 in enzyme kinetic analysis” value ([6]; CYP2C19) was “not detected” and the “M1 Formation Mode” value [6, 7] was “Single enzyme”. For the same compound, the “M2 Formation Mode” value [6, 7] was “Hill”.
